Laboratory results published in US20250326771A1, “PIPERAZINE DERIVATIVES USEFUL IN HIV THERAPY” (VIIV HEALTHCARE COMPANY, priority 2022, published 2025).

Tests used:
cIAP1-BIR3 = cIAP1-BIR3 (Homo sapiens (Human), UniProt Q13490); assay: BIR binding assay (FRET competition), cIAP1 BIR3; conditions: for cIAP1 BIR3 (pIC50): FRET competition binding; for cIAP1 BIR3 vs BIR2 separation window: fold separation (FS) for cIAP1
Experimental: (§1) The BIR domain binding assays are FRET based competition assays that utilize His-tagged versions of each of the BIR2 and BIR3 domains from cIAP1, cIAP2, and XIAP (each domain assayed separately) each at a custom optimal concentration and a probe, 200 nM SMAC/DIABLO peptide […] labelled with AlexaFluor647 (part #crb 1110326h, Discovery Peptides). The assay is conducted in 50 mM HEPES, […], 1 mM CHAPS, 5% Glycerol, 1 mM DTT, in dI water with a final pH of 7.4 and final volume of 20 uL. Final protein domain concentrations are: 50 nM cIAP1-BIR3 (Part #APT-11-370 Reaction Biology), 100 nM XIAP-BIR3 (Part #APT-11-351 Reaction Biology), 200 nM XIAP-BIR2 (Part #APT-11-470 Reaction Biology), 325 nM cIAP2-BIR2 (Part #APT-11-489 Reaction Biology), 50 nM cIAP2-BIR3 (Part #APT-11-372 Reaction Biology), 325 nM cIAP1-BIR2 (Part #APT-11-487 Reaction Biology). Compounds were plated using a HP Tecan D300 printer in a final total volume of 202 nl and DMSO concentration normalized across the 15-point, 3-fold dilution series. Peptide and probe were prepared at 2× relative to the concentrations above in binding buffer, 10 uL added to the prepared compound plates, and incubated for 60 minutes. LANCE Eu-W1024 (part #AD0401 Perkin Elmer #, vendor) was prepared at 2× concentration in binding buffer for final concentration of 2 nM, 10 uL added to each well, and plates incubated for 30 minutes. Plates were read on an ENVISION multifunction plate reader with […] laser excitation to obtain the 615 nm/665 nm emission ratio as indicative of probe:protein proximity. Data was analyzed using GraphPad PRISM and curves fit using log(inhibitor) vs. response—Variable slope (four […] method to obtain IC50 and pIC50 values.

XIAP-BIR3 = XIAP-BIR3 (Homo sapiens (Human), UniProt P98170); assay: BIR binding assay (FRET competition), XIAP BIR3; conditions: for XIAP BIR3 (pIC50): FRET competition binding
XIAP-BIR3, sequence (P98170 241-356): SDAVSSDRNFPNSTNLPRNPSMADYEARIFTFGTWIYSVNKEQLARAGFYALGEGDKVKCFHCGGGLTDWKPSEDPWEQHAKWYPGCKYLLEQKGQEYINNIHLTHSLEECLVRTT
Experimental: as §1

cIAP2-BIR3 = cIAP2-BIR3 (Homo sapiens (Human), UniProt Q13489); assay: BIR binding assay (FRET competition), cIAP2 BIR3; conditions: for cIAP2 BIR3 (pIC50): FRET competition binding; for cIAP2 BIR3 vs BIR2 separation window: fold separation (FS) for cIAP2
cIAP2-BIR3, sequence (Q13489 238-349): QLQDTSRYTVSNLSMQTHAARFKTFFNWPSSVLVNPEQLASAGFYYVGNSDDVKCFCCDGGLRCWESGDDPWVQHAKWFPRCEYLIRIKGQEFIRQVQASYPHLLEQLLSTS
Experimental: as §1

cIAP2-BIR2 = cIAP2-BIR2 (Homo sapiens (Human), UniProt Q13489); assay: BIR binding assay (FRET competition), cIAP2 BIR2
cIAP2-BIR2, sequence (Q13489 158-242): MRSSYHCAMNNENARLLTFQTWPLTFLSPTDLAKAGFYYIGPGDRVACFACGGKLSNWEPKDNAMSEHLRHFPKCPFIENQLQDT
Experimental: as §1

cIAP1-BIR2 = cIAP1-BIR2 (Homo sapiens (Human), UniProt Q13490); assay: BIR binding assay (FRET competition), cIAP1 BIR2
cIAP1-BIR2, sequence (Q13490 173-257): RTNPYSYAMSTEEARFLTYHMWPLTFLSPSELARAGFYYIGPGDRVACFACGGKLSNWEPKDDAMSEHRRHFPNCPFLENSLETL
Experimental: as §1

[1] = biological target: Jurkat HIV-luciferase clones; assay: Jurkat latency reversal assay; assay type: cell-based; conditions: Jurkat latency reversal assay potency; for EC50: Homo sapiens, 48 h, read-out: Jurkat pEC50 (converted)
Experimental: Jurkat HIV-luciferase clones were maintained in RPMI medium 1640 (Gibco by Life Technologies) containing 10% (vol/vol) fetal bovine serum (SAFC/Sigma-Aldrich) and 25 units/mL penicillin, 25 units/mL streptomycin (Gibco by Life Technologies), and were split 1:4 every 3 to 4 days to maintain a cell density of ˜0.3 to 1 million cells/mL. The Jurkat clones were maintained with the addition of 500 nM EFV in the medium. Three Jurkat cell clones (C16, 115, and N6), each harboring one or two integrated HIV proviruses expressing the luciferase reporter gene, were added at equal amounts for a total of 5,000 cells per well to 384-well plates containing compound titrations. Dose-response testing was performed on compounds dissolved in dimethyl sulfoxide (DMSO; Fisher Scientific, Merelbeke, Belgium) dispensed in duplicate serial 3-fold, 14-point titrations using a D300e Digital Droplet Dispenser (Hewlett-Packard) to give final assay concentrations of 10 μM to […] in 50 μL of medium at 0.5% DMSO (vol/vol) final concentration. Cells and compound were incubated at 37° C. for 48 hours, unless otherwise indicated, followed by the addition of 20 μL of Steady-Glo® Luciferase (Promega). Luminescence resulting from the induction of the virally expressed luciferase was measured using an EnVision 2102 Multilabel Plate Reader (Perkin Elmer). Dose-response relationships were analyzed with GraphPad PRISM 6 using a four-parameter logistic regression model to calculate the concentration of compound that gives half-maximal response (EC50) and the maximal percent activation compared to the vehicle control.

cIAP1-BIR3, sequence (Q13490 253-363): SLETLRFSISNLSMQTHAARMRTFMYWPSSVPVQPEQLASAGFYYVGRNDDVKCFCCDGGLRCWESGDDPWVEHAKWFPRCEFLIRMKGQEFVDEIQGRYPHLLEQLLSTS

Compound | cIAP1 BIR3 (pIC50) (cIAP1-BIR3) | cIAP1 BIR3 vs BIR2 separation window (cIAP1-BIR3) | XIAP BIR3 (pIC50) (XIAP-BIR3) | cIAP2 BIR3 (pIC50) (cIAP2-BIR3) | cIAP2 BIR3 vs BIR2 separation window (cIAP2-BIR3) | cIAP2 BIR2 (pIC50) (cIAP2-BIR2; FRET competition binding) | cIAP1 BIR2 (pIC50) (cIAP1-BIR2; FRET competition binding) | Jurkat pEC50 [1] | IC50 (cIAP1-BIR3) | IC50 (XIAP-BIR3) | IC50 (cIAP2-BIR3) | IC50 (cIAP2-BIR2) | IC50 (cIAP1-BIR2) | EC50 [1]
C[C@@H]1CN(CC(=O)N2CC(C)(C)c3[nH]c(=O)c(Cc4ccc(F)cc4)cc32)[C@@H](CN2CCO[C@H](COc3ccc(Oc4ccc(OC[C@@H]5CN(C[C@H]6CN[C@H](C)CN6CC(=O)N6CC(C)(C)c7[nH]c(=O)c(Cc8ccc(F)cc8)cc76)CCO5)cc4)cc3)C2)CN1 [Example 55, 1,1′-(2,2′-((3R,3′R,6R,6′R)-(((2S,2'S)-(((oxybis(4,1-phenylene))bis(oxy))bis(methylene))bis(morpholine-2,4-diyl))bis(methylene))bis(3-methylpiperazine-6,1-diyl))bis(acetyl))bis(6-(4-fluorobenzyl)-3,3-dimethyl-1,2,3,4-tetrahydro-5H-pyrrolo[3,2-b]pyridin-5-one)] | + (7.50>pIC50>=6.30) | ++++ (FS>10,000) | ++ (7.80>pIC50>=7.50) | +++ (8.10>pIC50>=7.80) | ++++ (FS>10,000) | + (4.29<pIC50<=5.00) | + (4.29<pIC50<=5.00) | ++++ (9.31>pEC50>=7.90) | – | – | – | – | – | –
C[C@@H]1CN(CC(=O)N2CC(C)(C)c3[nH]c(=O)c(Cc4ccc(F)cc4)cc32)[C@@H](CN2CCN(C(=O)c3ccc(/C=C/c4ccc(C(=O)N5CCN(C[C@H]6CN[C@H](C)CN6CC(=O)N6CC(C)(C)c7[nH]c(=O)c(Cc8ccc(F)cc8)cc76)[C@H](C)C5)cc4)cc3)C[C@H]2C)CN1 [Example 20, 1,1′-(2,2′-((3R,3′R,6R,6′R)-(((2R,2′R)-(4,4′-((E)-ethene-1,2-diyl)bis(benzoyl))bis(2-methylpiperazine-4,1-diyl))bis(methylene))bis(3-methylpiperazine-6,1-diyl))bis(acetyl))bis(6-(4-fluorobenzyl)-3,3-dimethyl-1,2,3,4-tetrahydro-5H-pyrrolo[3,2-b]pyridin-5-one)] | – | + (100>FS>1) | – | – | ++ (1,000>FS>100) | – | – | – | 15.8 to 31.6 nM | 31.6 to 501 nM | 15.8 to 31.6 nM | 22.4 to 1000 nM | 0.0224 to 1 µM | 12.6 to 63.1 nM
C[C@@H]1CN(CC(=O)N2CC(C)(C)c3[nH]c(=O)c(Cc4ccc(F)cc4)cc32)[C@@H](CN2CCC(CCOc3cccc(OCCC4CCN(C[C@H]5CN[C@H](C)CN5CC(=O)N5CC(C)(C)c6[nH]c(=O)c(Cc7ccc(F)cc7)cc65)CC4)c3)CC2)CN1 [Example 108, 1,1′-(2,2′-((3R,3′R,6R,6′R)-((((1,3-phenylenebis(oxy))bis(ethane-2,1-diyl))bis(piperidine-4,1-diyl))bis(methylene))bis(3-methylpiperazine-6,1-diyl))bis(acetyl))bis(6-(4-fluorobenzyl)-3,3-dimethyl-1,2,3,4-tetrahydro-5H-pyrrolo[3,2-b]pyridin-5-one)] | – | – | – | – | – | – | – | – | 15.8 to 31.6 nM | 31.6 to 501 nM | 15.8 to 31.6 nM | 10000 to 51300 nM | – | 12.6 to 63.1 nM
C[C@@H]1CN(CC(=O)N2CC(C)(C)c3ncc(Cc4ccc(Cl)cc4)cc32)[C@@H](CN2CCO[C@H](COc3cccc(OC[C@@H]4CN(C[C@H]5CN[C@H](C)CN5CC(=O)N5CC(C)(C)c6ncc(Cc7ccc(Cl)cc7)cc65)CCO4)c3)C2)CN1 [Compound 147] | – | +++ (10,000>FS>1,000) | – | – | – | – | – | – | 15.8 to 31.6 nM | 31.6 to 501 nM | 15.8 to 31.6 nM | – | 3.16 to 10 µM | 12.6 to 63.1 nM
Cc1cc(Cl)ccc1Cc1cc2c([nH]c1=O)C(C)(C)CN2C(=O)CN1C[C@@H](C)NC[C@@H]1CN1CCO[C@H](C(=O)NCc2ccc(CNC(=O)[C@@H]3CN(C[C@H]4CN[C@H](C)CN4CC(=O)N4CC(C)(C)c5[nH]c(=O)c(Cc6ccc(Cl)cc6C)cc54)CCO3)cc2)C1 [Compound 168, (2S,2′S)-N,N′-(1,4-phenylenebis(methylene)) bis(4-(((2R,5R)-1-(2-(6-(4-chloro-2-methylbenzyl)-3,3-dimethyl-5-oxo-2,3,4,5-tetrahydro-1H-pyrrolo[3,2-b]pyridin-1-yl)-2-oxoethyl)-5-methylpiperazin-2-yl)methyl)morpholine-2-carboxamide)] | – | – | – | – | ++ (1,000>FS>100) | – | – | – | 15.8 to 31.6 nM | 31.6 to 501 nM | 7.94 to 15.8 nM | 22.4 to 1000 nM | – | 0.49 to 12.6 nM
C[C@@H]1CN(CC(=O)N2CC(C)(C)c3ncc(Cc4ccc(Br)cc4)cc32)[C@@H](CN2CCO[C@H](COc3cccc(OC[C@@H]4CN(C[C@H]5CN[C@H](C)CN5CC(=O)N5CC(C)(C)c6ncc(Cc7ccc(Br)cc7)cc65)CCO4)c3)C2)CN1 [Compound 153] | – | +++ (10,000>FS>1,000) | – | – | – | – | – | – | 31.6 to 501 nM | 31.6 to 501 nM | 31.6 to 501 nM | – | 10 to 51.3 µM | 63.1 to 316 nM
C[C@@H]1CN(CC(=O)N2CC(C)(C)c3ncc(Cc4ccc(F)cc4)cc32)[C@@H](CN2CCN(S(=O)(=O)c3cccc(S(=O)(=O)N4CCN(C[C@H]5CN[C@H](C)CN5CC(=O)N5CC(C)(C)c6ncc(Cc7ccc(F)cc7)cc65)[C@H](C)C4)c3)C[C@H]2C)CN1 [Example 36, 2,2′-((3R,3′R,6R,6′R)-(((2R,2′R)-(1,3-phenylenedisulfonyl)bis(2-methylpiperazine-4,1-diyl))bis(methylene))bis(3-methylpiperazine-6,1-diyl))bis(1-(6-(4-fluorobenzyl)-3,3-dimethyl-2,3-dihydro-1H-pyrrolo[3,2-b]pyridin-1-yl)ethan-1-one)] | – | +++ (10,000>FS>1,000) | – | – | – | – | – | – | 15.8 to 31.6 nM | 31.6 to 501 nM | 15.8 to 31.6 nM | – | 3.16 to 10 µM | 0.49 to 12.6 nM
C[C@@H]1CN(CC(=O)N2CC(C)(C)c3[nH]c(=O)c(Cc4ccc(F)cc4)cc32)[C@@H](CN2CCC[C@@H](NC(=O)CCCCCCCCCCCCC(=O)N[C@@H]3CCCN(C[C@H]4CN[C@H](C)CN4CC(=O)N4CC(C)(C)c5[nH]c(=O)c(Cc6ccc(F)cc6)cc54)C3)C2)CN1 [Example 46, N1,N^14-bis((R)-1-(((2R,5R)-1-(2-(6-(4-fluorobenzyl)-3,3-dimethyl-5-oxo-2,3,4,5-tetrahydro-1H-pyrrolo[3,2-b]pyridin-1-yl)-2-oxoethyl)-5-methylpiperazin-2-yl)methyl)piperidin-3-yl)tetradecanediamide] | ++ (7.80>pIC50>=7.50) | +++ (10,000>FS>1,000) | + (7.50>pIC50>=6.30) | ++ (7.80>pIC50>=7.50) | – | – | – | – | – | – | – | – | 3.16 to 10 µM | 63.1 to 316 nM
Cc1ccc(Cc2cnc3c(c2)N(C(=O)CN2C[C@@H](C)NC[C@@H]2CN2CCO[C@H](COc4cccc(OC[C@@H]5CN(C[C@H]6CN[C@H](C)CN6CC(=O)N6CC(C)(C)c7ncc(Cc8ccc(C)cc8)cc76)CCO5)c4)C2)CC3(C)C)cc1 [Compound 148] | – | ++++ (FS>10,000) | – | – | – | – | – | – | 15.8 to 31.6 nM | 31.6 to 501 nM | 15.8 to 31.6 nM | – | 10 to 51.3 µM | 12.6 to 63.1 nM
